Test results published in patent US7872101B1, “Modulators of the orphan G protein-coupled receptors GPR78 and GPR26” (Schering Corporation, priority 2006, dated 2011).
Read-outs that look alike come from different tables or passages of the source.

Assays:
GPR78 [1] = target: T1, GPR78 (Homo sapiens, UniProt Q96P69); assay: cre-luciferase cAMP reporter assay in GPR78-transfected HEK293/cre-luc cells; assay type: cell-based; conditions: for cAMP stimulation: final concentration 300 μM in 1.5% DMSO, luciferase reporter assay and direct cAMP measurement (Perkin-Elmer kit); for cAMP level compared with GPR78-expressing cells stimulated with buffer (Basal): Tyrphostin B42 at 23 μM, Tyrphostin A9 at 24 μM; for effect on genistein-induced cAMP: FIG. 6A; for cAMP level compared to buffer control / genistein: isoflavones, FIG. 3
T1 construct: Full length open reading frames (ORFS) of GPR78 and GPR26 were obtained with PCR; expressed in transfected cells; host or cells: HEK293/cre-luc
T1 sequence (Q96P69 whole entry): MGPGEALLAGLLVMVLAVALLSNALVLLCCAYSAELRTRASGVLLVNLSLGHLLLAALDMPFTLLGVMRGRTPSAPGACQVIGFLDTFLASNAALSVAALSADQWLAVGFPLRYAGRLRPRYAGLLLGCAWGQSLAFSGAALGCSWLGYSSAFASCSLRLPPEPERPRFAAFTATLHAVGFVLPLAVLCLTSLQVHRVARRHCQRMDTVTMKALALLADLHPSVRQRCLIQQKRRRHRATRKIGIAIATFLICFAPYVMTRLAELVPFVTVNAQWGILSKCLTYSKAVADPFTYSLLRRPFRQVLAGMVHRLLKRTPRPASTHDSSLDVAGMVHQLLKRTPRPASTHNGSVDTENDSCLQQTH
Protocol: (§1) HEK293/cre-luc cells were harvested by 0.05% trypsin EDTA buffer, cells re-suspended in complete culture medium 20 million in […] transfection cuvette, 1 microgram receptor plasmid was transfected into reporter cells by electroporation method. The parameter of the GenePulser (Bio-Rad Laboratories, Hercules, Calif.) was set at: voltage 200 volts and capacity 500 microfarads. After electroporation, cells were re-suspended at a density of 25,000 cells in 25 μl complete medium, placed in 384-well plate. After 24 hours of transfection, the transfection medium was replaced with fresh complete medium. Empty plasmid vector was transfected as a negative control (mock transfection).
When inhibitors were used in the assay, they were added 30 minutes before cell stimulation. At the end of incubation, 25 μl of Bright-Glo™ obtained from Promega (Madison, Wis.) was added into each well. Luciferase activity was determined with a luminometer (Luminoskan Ascent®, Thermo-Electron Corp.), at a speed of 100 milliseconds per well.
Response of cells with the expressed receptor to test ligand stimulation was subject to two types of detection: intracellular cAMP accumulation and intracellular Ca2+ flux monitored with fluorescent intensity using a Fluorimetric Image Plate Reader (FLIPR).

protein tyrosine kinase = conditions: literature values; for genistein depending on the substrates used; read-out: IC50, inhibition of protein tyrosine kinase; cited from earlier work
GPR78 [2] = target: T1, GPR78; assay: antagonist cre-luc reporter assay, inhibition of GPR78 activation; assay type: cell-based
Protocol: (§2) Screening was performed by using cells transiently expressing GPR26 or GPR78. HEK293/cre-luc cells were harvested by using 0.05% trypsin EDTA solution, and were suspended in complete culture medium at a density of 20 million in 0.4 ml transfection cuvettes. One 1 microgram plasmid construct containing GPR78 or GPR26 cDNA was transfected into reporter cells by electroporation using the GenePulser (Bio-Red Laboratories, Hercules, Calif.). The transfection conditions were: voltage at 200 volts and capacity at 500 microfarads. After electroporation, cells were suspended at a density of 25,000 cells in 25 μl complete medium and placed in a 384-well plate. After 24 hours of transfection, the transfection medium was replaced with fresh complete medium. Empty plasmid vector was transfected as a negative control (mock transfection). The compounds were arranged in 96-well format in eight racks of 80, with one compound per well (250 μl at 10 mM in DMSO). […] By the end of incubation, 25 ul of Bright-Glo™ (Promega, Madison, Wis.) was added into each well. Luciferase activity was determined with a Luminometer (Luminoskan Ascent, Thermo Labsystems), at a speed of 100 milliseconds per well.
(§3) To determine the inhibitory potency of the two molecules, dose-response curves were generated with the same assay method and IC50 values calculated from the curves.

GPR26 [3] = target: T2, GPR26 (Homo sapiens, UniProt Q8NDV2); assay: antagonist cre-luc reporter assay, inhibition of GPR26 activation; assay type: cell-based
T2 construct: Full length open reading frames (ORFS) of GPR78 and GPR26 were obtained with PCR; expressed in transfected cells; host or cells: HEK293/cre-luc
T2 sequence (Q8NDV2 whole entry): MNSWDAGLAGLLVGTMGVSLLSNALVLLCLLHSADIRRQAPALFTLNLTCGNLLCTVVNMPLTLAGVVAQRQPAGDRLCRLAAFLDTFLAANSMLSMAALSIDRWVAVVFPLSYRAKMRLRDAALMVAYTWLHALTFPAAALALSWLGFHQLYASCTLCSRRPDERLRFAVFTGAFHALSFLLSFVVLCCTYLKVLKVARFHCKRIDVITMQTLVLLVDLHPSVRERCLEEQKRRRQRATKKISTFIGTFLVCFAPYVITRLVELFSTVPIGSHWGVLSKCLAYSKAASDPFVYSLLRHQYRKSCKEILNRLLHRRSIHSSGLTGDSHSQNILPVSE
Protocol: as §2, §3

adenylyl cyclase = conditions: cell-free enzyme assays, ref [28]; read-out: published IC50; cited from earlier work
NO synthase (NOS) = NO synthase (NOS) (Mus musculus, UniProt P29477); conditions: read-out: IC50, inhibition of NOS; cultured peritoneal macrophages, ref [40]; cited from earlier work
Sequence of NO synthase (NOS) (P29477 whole entry): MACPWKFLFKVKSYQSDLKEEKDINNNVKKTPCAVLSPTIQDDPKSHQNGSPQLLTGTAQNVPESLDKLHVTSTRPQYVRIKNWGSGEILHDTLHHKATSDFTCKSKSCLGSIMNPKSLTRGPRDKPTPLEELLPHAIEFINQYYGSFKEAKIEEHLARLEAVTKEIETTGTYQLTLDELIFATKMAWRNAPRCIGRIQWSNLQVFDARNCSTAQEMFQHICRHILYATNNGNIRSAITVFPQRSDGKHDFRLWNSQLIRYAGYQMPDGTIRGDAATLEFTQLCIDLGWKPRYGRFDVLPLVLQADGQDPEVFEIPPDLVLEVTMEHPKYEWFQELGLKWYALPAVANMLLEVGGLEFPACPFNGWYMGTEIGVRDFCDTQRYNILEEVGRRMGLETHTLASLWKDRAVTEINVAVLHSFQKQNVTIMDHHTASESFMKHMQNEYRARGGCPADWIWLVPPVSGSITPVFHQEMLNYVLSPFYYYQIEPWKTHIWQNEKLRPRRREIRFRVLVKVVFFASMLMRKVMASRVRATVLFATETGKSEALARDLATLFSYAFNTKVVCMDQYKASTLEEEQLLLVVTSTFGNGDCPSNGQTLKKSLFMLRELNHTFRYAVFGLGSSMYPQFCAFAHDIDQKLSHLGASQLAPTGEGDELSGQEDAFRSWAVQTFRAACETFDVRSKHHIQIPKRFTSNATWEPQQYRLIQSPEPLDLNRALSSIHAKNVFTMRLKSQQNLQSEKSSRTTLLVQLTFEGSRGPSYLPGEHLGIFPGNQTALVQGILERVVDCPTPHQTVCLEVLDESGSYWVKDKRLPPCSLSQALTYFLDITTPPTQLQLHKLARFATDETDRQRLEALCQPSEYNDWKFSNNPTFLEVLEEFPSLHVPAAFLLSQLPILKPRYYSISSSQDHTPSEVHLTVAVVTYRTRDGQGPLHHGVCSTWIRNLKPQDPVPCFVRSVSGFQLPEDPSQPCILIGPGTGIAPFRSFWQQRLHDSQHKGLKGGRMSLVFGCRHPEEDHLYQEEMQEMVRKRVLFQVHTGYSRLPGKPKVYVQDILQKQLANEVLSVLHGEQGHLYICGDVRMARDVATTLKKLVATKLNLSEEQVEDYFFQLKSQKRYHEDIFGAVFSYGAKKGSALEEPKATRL

rabbit aortic rings = conditions: read-out: IC50, block of acetylcholine-induced relaxation, ref [40]; cited from earlier work
GPR154 = target: T3, GPR154 (Homo sapiens, UniProt Q6W5P4); assay: Ca2+ flux assay (FLIPR), positive control receptor; assay type: cell-based; conditions: FIG. 5
T3 construct: expressed in transfected cells; host or cells: HEK293/cre-luc
T3 sequence (Q6W5P4 1-371): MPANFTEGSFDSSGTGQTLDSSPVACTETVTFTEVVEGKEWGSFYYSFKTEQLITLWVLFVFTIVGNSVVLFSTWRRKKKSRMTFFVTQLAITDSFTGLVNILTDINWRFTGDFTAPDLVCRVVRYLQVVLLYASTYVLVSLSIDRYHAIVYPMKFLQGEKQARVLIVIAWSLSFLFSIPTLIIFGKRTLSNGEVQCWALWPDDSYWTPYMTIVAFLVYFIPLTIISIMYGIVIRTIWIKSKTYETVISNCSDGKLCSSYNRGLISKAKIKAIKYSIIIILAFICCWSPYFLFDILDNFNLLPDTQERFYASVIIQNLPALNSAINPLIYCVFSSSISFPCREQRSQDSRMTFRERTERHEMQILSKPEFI
Text: (§4) Ca2+ flux measurements were taken to test if GPR78, when activated with genistein, is coupled to the Gq-mediated pathway.

protein kinase A = conditions: ref [27]; read-out: reported IC50 of H89; cited from earlier work
GPR26 [4] = target: T2, GPR26; assay: direct intracellular cAMP measurement (Meso Scale Discovery kit) in HEK293/cre-luc cells stably transfected with GPR26; assay type: cell-based; conditions: cells stably expressing GPR26, FIG. 8B
Protocol: (§5) Constructs PCR3.1-GPR78 and PCR3.1-GPR26 were transfected into HEK293/cre-luc cells with use of Lipofectamine™ 2000 and cells were selected for G418 resistance. Cells resistant to G418 were further diluted and selected for individual colonies. Cell lines grown from the G418-resistant colonies were screened for positive response with genistein in the Cre-Luciferase cAMP assay.
(§6) Intracellular cAMP was measured directly with a cAMP kit purchased from Meso Scale Discovery (Gaithersburg, Md., Ma6000 cAMP 384-well Kit, Catalog number K210FDD-2). The assay was preformed by following the manufacturer's protocol. Briefly, stable HEK293/cre-luc cells expressing GPR78 or GPR26 were harvested, washed with PBS and resuspended at 300,000/10 μl of assay buffer (from the kit) containing 0.5 mM IBMX. Genistein at appropriate concentrations was diluted in the cAMP assay buffer and 5 μl was added into wells of the assay plate. The mixture was then incubated at room temperature for 30 minutes. Light intensity in assay wells was measured using a MSD SI6000 instrument obtained from Meso Scale Discovery.
(§7) GPR26, another orphan GPCR, shares 51% identity in the seven transmembrane regions with GPR78 ([19]). […] HEK293/cre-luc cells were transiently transfected with pCR3.1-GPR26 and monitored cAMP levels upon stimulation with genistein. […]

GPR78 [5] = target: T1, GPR78; assay: direct intracellular cAMP measurement (Meso Scale Discovery kit) in HEK293/cre-luc cells stably transfected with GPR78; assay type: cell-based; conditions: FIG. 2C, read-out: EC50, increase of cAMP level
Protocol: as §5, §6

GPR78 [6] = target: T1, GPR78; assay: Ca2+ flux assay (FLIPR) in GPR78-expressing HEK/cre-luc cells; assay type: cell-based; conditions: genistein at concentrations near 100 μM, FIG. 5
Text: Response of cells with the expressed receptor to test ligand stimulation was subject to two types of detection: intracellular cAMP accumulation and intracellular Ca2+ flux monitored with fluorescent intensity using a Fluorimetric Image Plate Reader (FLIPR). For cAMP measurement, a HEK293 cell line that had been stably transfected with luciferase reporter gene, was used as a host cell transiently transfected with the pCR3.1-GPR78 construct described in Example 1.
as §4

GPR26 [7] = target: T2, GPR26; assay: cre-luciferase cAMP reporter assay in GPR26-transfected HEK293/cre-luc cells; assay type: cell-based; conditions: cre-luc reporter assay, transient transfection, FIG. 8A; read-out: EC50, activation of GPR26
Protocol: as §1
Forty hours after transfection, cells were stimulated by adding 5 μl of ligand in 60 μM 4-(3-butoxy-4-methoxy-benzyl)-2-Imidazolidinone in 293 SFM II serum-free media obtained from Gibco (Gaithersburg, Md.), and incubated for 6 hours at 37° C. in a 5% CO2-95% air incubator. […] Luciferase activity was determined with a luminometer (Luminoskan Ascent®, Thermo-Electron Corp.), at a speed of 100 milliseconds per well.
as §7

GPR30 = target: T4, GPR30 (Homo sapiens, UniProt Q99527); conditions: Gβγ-mediated pathway, ref [25]; cited from earlier work
T4 construct: host or cells: MCF-7, MDA-MB-231, SKBR3 (as cited)
T4 sequence (Q99527 whole entry): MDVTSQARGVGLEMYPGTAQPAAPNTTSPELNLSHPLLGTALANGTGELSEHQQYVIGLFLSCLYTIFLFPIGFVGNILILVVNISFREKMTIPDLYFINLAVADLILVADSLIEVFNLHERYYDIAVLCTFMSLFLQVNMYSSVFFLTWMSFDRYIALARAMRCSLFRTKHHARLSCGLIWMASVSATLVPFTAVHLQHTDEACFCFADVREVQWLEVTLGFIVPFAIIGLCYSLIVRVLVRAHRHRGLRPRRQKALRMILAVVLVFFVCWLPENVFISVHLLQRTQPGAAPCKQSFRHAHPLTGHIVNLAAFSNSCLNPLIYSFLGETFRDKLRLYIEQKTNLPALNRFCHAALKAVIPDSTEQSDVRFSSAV

With `C[C@]12CC[C@H]3[C@@H](CCC4=CC(=O)CC[C@@]43C)[C@@H]1CC[C@@H]2O` [testosterone] the cAMP stimulation (GPR78 [1]) was “No cAMP stimulation was observed”.

For `CC(C)(C)c1cc(C=C(C#N)C#N)cc(C(C)(C)C)c1O` [Tyrphostin A9], the “cAMP level compared with GPR78-expressing cells stimulated with buffer (Basal)” value (GPR78 [1]; FIG. 1) is listed as “not higher than the level in GPR78-expressing cells stimulated with buffer” and the IC50 (protein tyrosine kinase) is listed as 0.04 to 9 µM.

In the case of `C[n+]1cc2c3c(ccc2c2ccc4cc5c(cc4c21)OCO5)OCO3` [sanguinarine Cl hydrate], the IC50 (GPR78 [2]; cre-luc reporter assay, dose-response curves, read-out: IC50, inhibition of GPR78 activation) is reported as 0.65 µM and the IC50 (GPR26 [3]; cre-luc reporter assay, dose-response curves, read-out: IC50, inhibition of GPR26 activation) is reported as 0.26 µM.

For `Nc1ncnc2c1ncn2C1CCCO1` (centres unmarked) [SQ22536, 9-(Tetrahydro-2-furanyl)-9H-purin-6-amine], the “reduction of genistein-stimulated cAMP” value (GPR78 [1]; SQ22536 at 20 μM pre-incubated, FIG. 7) is given as 25%, the “reduction of cAMP level resulting from constitutive activity of GPR78” value (GPR78 [1]; SQ22536 at 20 μM pre-incubated, absence of genistein, FIG. 7) is given as 34% and the IC50 (adenylyl cyclase) is given as 20 µM.

In the case of `c1ccc2c(c1)[I+]c1ccccc1-2` [diphenyleneiodonium Cl, Diphenyleneiodonium Cl], the IC50 (GPR78 [2]) is listed as 65 µM, the IC50 (NO synthase (NOS)) is listed as 0.03 µM and the IC50 (GPR26 [3]) is listed as 39 µM. For the same molecule, the IC50 (rabbit aortic rings) was 0.3 µM.

For “neuropeptide S (SFRNGVGTGMKKTSFQRAKS) [ligand of GPR154, positive control in Ca2+ flux assay]”, the “response in Ca2+ flux assay” value (GPR154) was “responded to neuropeptide S acutely”.

For `N#C/C(=C\c1ccc(O)c(O)c1)C(=O)NCc1ccccc1` [Tyrphostin B42], the “cAMP level compared with GPR78-expressing cells stimulated with buffer (Basal)” value (GPR78 [1]; FIG. 1) is given as “not higher than the level in GPR78-expressing cells stimulated with buffer” and the IC50 (protein tyrosine kinase) is given as 20 µM.

For `Cl.Cl.O=S(=O)(NCCNCC=Cc1ccc(Br)cc1)c1cccc2cnccc12` [H89, N-[2-(p-bromocinnamylamino)ethyl]-5-isoquinolinesulfonamide dihydrochloride], the IC50 (protein kinase A) is given as 0.05 µM, the “effect on genistein-induced cAMP” value (GPR78 [1]; 10 μM H89, 30 min pre-incubation) is given as “Most of genistein-induced cAMP was reduced” and the “effect on basal (constitutive) cAMP level” value (GPR78 [1]; 10 μM H89, compared to cells with no H89, FIG. 6A) is given as “decrease of the basal cAMP level by approximately half”. The “effect on genistein-induced cAMP” value (GPR78 [1]; 100 μM H89, 30 min pre-incubation) was “all cAMP accumulation was abolished” and the “effect on basal (constitutive) cAMP level” value (GPR78 [1]; 100 μM H89, FIG. 6A) was “completely inhibited cAMP accumulation”.

For `O=c1c(-c2ccc(O)cc2)coc2cc(O)ccc12` [daidzein], the “cAMP level compared to buffer control / genistein” value (GPR78 [1]) was “significantly increased cAMP level comparable to that by genistein”.

For `COc1ccc(-c2coc3cc(O)cc(O)c3c2=O)cc1` [biochanin A], the “cAMP level compared to buffer control / genistein” value (GPR78 [1]) was “only slightly induced cAMP levels”.

For `O=c1c(-c2ccc(O)cc2)coc2cc(O)cc(O)c12` [genistein], the cAMP production (GPR26 [4]) was “stimulated cAMP production”, the EC50 (GPR78 [1]) was 6 to 10 µM and the “increase of luciferase activity (cAMP production) compared to the mock transfection control” value (GPR78 [1]; 25 μM genistein, transiently transfected cells, FIG. 1) was “more than 8 fold”. The EC50 (GPR78 [1]; FIG. 2A, read-out: EC50, induction of cAMP) was 7 µM, the EC50 (GPR78 [5]) was ~6 µM and the “activation in Ca++ flux assay” value (GPR78 [6]) was “not activated”. The IC50 (protein tyrosine kinase) was 1 to 22 µM, the EC50 (GPR26 [7]) was ~10 µM and the “potency of GPR30 activation” value (GPR30) was “low μM range”.

In the case of `CC(=O)[C@H]1CC[C@H]2[C@@H]3CCC4=CC(=O)CC[C@]4(C)[C@H]3CC[C@]12C` [progesterone], the cAMP stimulation (GPR78 [1]) is reported as “No cAMP stimulation was observed”.
